Patent US20080108611A1, “SUBSTITUTED THIENOPYRIMIDINE KINASE INHIBITORS” (priority 2006, published 2008)

Experiments:
[1] = test system: HeLa cervical adenocarcinoma; assay: Cell Proliferation Inhibition Assay (14C-thymidine incorporation), HeLa; format: cell-based; conditions: Homo sapiens; HeLa cells
Protocol: (§1) The ability of a test compound to inhibit unregulated cell proliferation was determined by measuring incorporation of ^14C-labelled thymidine into newly synthesized DNA within cell lines derived from carcinomas originating from several tissues. Accordingly, the anti-proliferative effect of a compound on cells with a variety of phenotypes may be determined.
(§2) Carcinoma cell lines include those such as HeLa cervical adenocarcinoma (American Type Culture Collection (ATCC), Virginia, Cat. #CCL-2), A375 malignant melanoma (ATCC CRL-1619), SK-OV-3 ovarian adenocarcinoma (ATCC HTB-77), HCT-116 colon carcinoma (CCL-247), PC-3 prostate adenocarcinoma (ATCC CRL-1435), and MDA-MB-231 (Xenogen Corp.)
(§3) The carcinoma cells were trypsinized and counted. The cells (3000-8000 count) were added to each well of a 96-well CytoStar tissue culture treated scintillating microplate (Amersham #RPNQ0160) in complete medium (100 μL) and the plate was then incubated in complete medium for 24 hrs at 37° C. in an […] atmosphere containing 5% CO2. Test compound (1 μL) in 100% DMSO was added to the plate test-wells with DMSO only added to control-wells. The plate was incubated in complete medium for a second 24 hr period at 37° C. in an atmosphere containing 5% CO2.
(§4) An aliquot of a solution of methyl ^14C-thymidine (56 mC/mmol) (NEN #NEC568 or Amersham #CFA532) and complete medium (20 uL to provide 0.2 μCi/well) was then added to each well and the plate was incubated for a third 24 hr period at 37° C. in an atmosphere containing 5% CO2. The plate contents were then discarded, the plate was washed twice with PBS (200 μL) and then PBS (200 μL) was added to each well. The plate was sealed and the degree of methyl ^14C-thymidine incorporation was quantified on a Packard Top Count.

HER-2 = biological target: T1, HER-2 (Homo sapiens, UniProt P04626); assay: HER-2 Kinase Assay; format: biochemical; conditions: GST-HER2, 1 μM ATP
T1 construct: the nucleotides encoding amino acids 679 to 1255 of HER-2; HIS6-Thrombin (His6 tag and thrombin site) (N); purchased Proqinase (Freiburg, Germany)
T1 sequence (P04626 679-1255): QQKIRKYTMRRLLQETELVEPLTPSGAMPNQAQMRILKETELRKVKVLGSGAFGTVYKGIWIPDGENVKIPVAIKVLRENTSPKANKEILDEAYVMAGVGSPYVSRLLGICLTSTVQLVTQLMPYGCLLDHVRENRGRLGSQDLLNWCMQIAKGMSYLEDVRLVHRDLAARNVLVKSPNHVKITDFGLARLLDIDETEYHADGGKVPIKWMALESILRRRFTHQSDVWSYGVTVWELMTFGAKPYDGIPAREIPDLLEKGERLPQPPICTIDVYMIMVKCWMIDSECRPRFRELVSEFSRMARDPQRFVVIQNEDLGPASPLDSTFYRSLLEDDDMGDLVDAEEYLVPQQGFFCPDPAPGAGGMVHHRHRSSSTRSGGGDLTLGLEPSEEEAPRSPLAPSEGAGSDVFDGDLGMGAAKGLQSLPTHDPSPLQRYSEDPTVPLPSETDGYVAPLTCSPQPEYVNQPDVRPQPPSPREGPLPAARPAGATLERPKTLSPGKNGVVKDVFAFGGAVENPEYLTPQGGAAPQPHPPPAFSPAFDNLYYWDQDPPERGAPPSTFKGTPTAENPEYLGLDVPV
Protocol: HER-2 kinase was purified at Proqinase (Freiburg, Germany) from a construct that consisted of a fusion of GST (Glutathione-S-Transferase), HIS6-Thrombin and the nucleotides encoding amino acids 679 to 1255 of HER-2.
A mixture of a 10× kinase reaction buffer (600 mM Hepes at pH 7.5, 30 mM Magnesium Chloride, 0.03 mM Sodium Vanadate and 500 μg/mL PEG 20,000), DTT (1.2 mM final from a 10 mM stock), ATP (1 μM from a 10 mM stock), biotinylated polyGluTyr (1.5 ng/μL final from stock of 1 μg/μL prepared by Upstate Biotechnologies, Lake Placid, N.Y.), Manganese Chloride (3 mM final from a 1 M stock), γ-^33P-ATP (10 μCi/μL stock) and water (70 μL/well) was added to each well of a Streptavidin Flashplate (Cat. # SMP103, NEN, Boston, Mass.).
Test compound stock (1 μL) was added to the appropriate wells. Diluted GSTHER2 kinase (6.7 ng/μL diluted into 50 mM Tris-HCl at pH 8.0 and 0.1% bovine serum albumin) (30 μL) was added (total volume of 200 ng/well) to initiate the reactions.
The reaction plates were incubated at 30° C. for 1 hr. The reaction was terminated by aspirating the reaction mixture from the plate wells and washing the wells three times with a 1×PBS stop buffer (300 μL) and 100 mM EDTA. After the final wash, the same stop buffer (200 μL) was again added to the wells. The plates were then sealed and read on the TopCount scintillation counter. The IC50 was derived according to the procedure described in Example 1.

VEGF-R2 = biological target: T2, VEGF-R2 (Rattus norvegicus, UniProt O08775); assay: VEGF-R2 Screening Assay; format: biochemical; conditions: rat VEGF-R2 kinase domain, 10 μM ATP
T2 construct: polyhistidine (N)
T2 sequence (O08775 786-1343): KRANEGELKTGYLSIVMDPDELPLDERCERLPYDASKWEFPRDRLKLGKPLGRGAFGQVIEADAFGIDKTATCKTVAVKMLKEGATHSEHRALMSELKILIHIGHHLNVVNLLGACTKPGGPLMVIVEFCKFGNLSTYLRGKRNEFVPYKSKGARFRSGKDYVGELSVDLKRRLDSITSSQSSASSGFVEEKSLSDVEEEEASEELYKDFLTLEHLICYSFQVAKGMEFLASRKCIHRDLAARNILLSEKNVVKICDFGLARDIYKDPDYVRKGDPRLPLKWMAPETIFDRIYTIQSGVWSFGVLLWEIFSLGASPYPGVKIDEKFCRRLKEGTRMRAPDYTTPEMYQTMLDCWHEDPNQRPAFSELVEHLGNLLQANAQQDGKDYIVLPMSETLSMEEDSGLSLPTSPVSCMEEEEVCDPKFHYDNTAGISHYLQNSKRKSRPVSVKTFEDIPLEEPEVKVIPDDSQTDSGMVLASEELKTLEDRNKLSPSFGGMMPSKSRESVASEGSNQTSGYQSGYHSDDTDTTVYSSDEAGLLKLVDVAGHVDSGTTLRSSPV
Protocol: (§5) A kinase reaction mixture was prepared containing 50 mM Tris-HCl at pH 8, 10 mM MgCl2, 0.1 mM Na3PO4, 1 mM DTT, 10 μM ATP, 0.025 μM biotinylated histone-H1 peptide substrate and 0.2 μCuries per well ^33P-γ-ATP (2000-3000 Ci/mmol). 70 μL of the kinase reaction mixture was dispensed into the well of a Streptavidin FlashPlate.
(§6) Test compound stock in 100% DMSO (1 μL) was added to the wells resulting in a final concentration of 1% DMSO in the reaction with a 100 μL final reaction volume. Each enzyme was diluted in 50 mM Tris-HCl pH=8.0, 0.1% BSA and 30 μL was added to each well to initiate the reaction. The reaction was incubated for one hour at 30° C. At the end of the 1 hr incubation, the reaction was terminated by aspirating the mixture from the plate and washing the wells twice with PBS containing 100 mM EDTA. The biotinylated peptide substrate became immobilized on the Flashplate™ and the incorporation of ^33P-γ-ATP was measured by reading the plate on a scintillation counter. Inhibition of the enzymatic activity was measured by observing a reduced amount of ^33P-γ-ATP incorporated into the immobilized peptide.
The VEGF-R2 enzyme is a fusion protein containing a polyhistidine tag at the N terminus followed by amino acids 786 to 1343 of the rat VEGF-R2 kinase domain (Accession number U93306). The assay used 150 ng of the N-terminal biotinylated peptide biotin-KHKKLAEGSAYEEV-amide (VEGF-R2) per well.
(§7) The IC50 was derived according to the procedure described in Example 1.

HCT-116 colon carcinoma = assay: Cell Proliferation Inhibition Assay (14C-thymidine incorporation), HCT116; format: cell-based; conditions: Homo sapiens, HCT116 cells
Protocol: as §1, §2, §3, §4

Aurora-A = biological target: T3, Aurora-A (Mus musculus, UniProt P97477); assay: Aurora-A Screening Assay; format: biochemical; conditions: murine Aurora-A full length, 10 μM ATP
T3 construct: followed by the full length protein encoding the murine Aurora-A; polyhistidine (N); made in house; host or cells: Sf9 insect cells
T3 sequence (P97477 1-395): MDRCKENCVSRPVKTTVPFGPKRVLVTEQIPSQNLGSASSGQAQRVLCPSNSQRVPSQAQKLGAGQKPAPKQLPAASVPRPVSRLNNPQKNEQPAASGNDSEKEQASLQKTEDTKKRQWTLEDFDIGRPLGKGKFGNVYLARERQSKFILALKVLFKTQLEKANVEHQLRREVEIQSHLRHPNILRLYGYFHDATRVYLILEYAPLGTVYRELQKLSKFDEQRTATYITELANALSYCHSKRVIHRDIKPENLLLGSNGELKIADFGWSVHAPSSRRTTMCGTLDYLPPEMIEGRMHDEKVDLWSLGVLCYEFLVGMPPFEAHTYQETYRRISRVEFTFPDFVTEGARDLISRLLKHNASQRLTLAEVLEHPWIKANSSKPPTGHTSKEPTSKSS
Protocol: as §5, §6
Aurora-A is a fusion protein containing a polyhistidine tag at the N terminus followed by the full length protein encoding the murine Aurora-A (Accession number GB BC014711) expressed and purified from sf9 insect cells. The assay used 400 ng of the N-terminal biotinylated peptide biotin-GRTGRRNSI-amide (Aurora-A) per well.
as §7

IC50 [1] [µM]	IC50 (HER-2) [µM]	IC50 (VEGF-R2) [µM]	IC50 (HCT-116 colon carcinoma) [µM]	IC50 (Aurora-A) [µM]	Compound
> 10	> 100	0.248	> 10	> 100	Cc1cc2c(F)c(Oc3ncnc4sc(C(=O)NCCN5CCOCC5)c(C)c34)ccc2[nH]1 [Cpd 19, 4-(4-fluoro-2-methyl-1H-indol-5-yloxy)-5-methyl-thieno[2,3-d]pyrimidine-6-carboxylic acid (2-morpholin-4-yl-ethyl)-amide]
> 10	> 100	0.761	> 10	> 100	Cc1cc2c(F)c(Oc3ncnc4sc(C(=O)Nc5ccc(CN6CCOCC6)cc5)c(C)c34)ccc2[nH]1 [Cpd 20, 4-(4-fluoro-2-methyl-1H-indol-5-yloxy)-5-methyl-thieno[2,3-d]pyrimidine-6-carboxylic acid (4-morpholin-4-ylmethyl-phenyl)-amide]
8.5	> 100	0.393	9.4	> 100	Cc1cc2c(F)c(Oc3ncnc4sc(C(=O)NCCN5CCCCC5)c(C)c34)ccc2[nH]1 [Cpd 21, 4-(4-fluoro-2-methyl-1H-indol-5-yloxy)-5-methyl-thieno[2,3-d]pyrimidine-6-carboxylic acid (2-piperidin-1-yl-ethyl)-amide]
15.2	> 100	0.619	22.3	> 100	Cc1cc2c(F)c(Oc3ncnc4sc(C(=O)NCCN5CCCC5)c(C)c34)ccc2[nH]1 [Cpd 22, 4-(4-fluoro-2-methyl-1H-indol-5-yloxy)-5-methyl-thieno[2,3-d]pyrimidine-6-carboxylic acid (2-pyrrolidin-1-yl-ethyl)-amide]
> 10	> 100	> 100	7.1	> 100	Cc1c(C(=O)Nc2ccc(CN3CCOCC3)cc2)sc2ncnc(Nc3ccc(Oc4ccccc4)cc3)c12 [Cpd 23, 5-methyl-4-(4-phenoxy-phenylamino)-thieno[2,3-d]pyrimidine-6-carboxylic acid (4-morpholin-4-ylmethyl-phenyl)-amide]
> 100	> 10	~100	> 10	> 100	Cc1c(C(=O)NCCN2CCOCC2)sc2ncnc(Nc3ccc(Oc4ccccc4)cc3)c12 [Cpd 24]
> 10	> 10	0.378	> 10	> 10	COCCNC(=O)c1sc2ncnc(Oc3ccc4[nH]c(C)cc4c3F)c2c1C [Cpd 27, 4-(4-fluoro-2-methyl-1H-indol-5-yloxy)-5-methyl-thieno[2,3-d]pyrimidine-6-carboxylic acid (2-methoxy-ethyl)-amide]
